# Measured values from patent US20150017665A1, “Peptides and Methods for Detecting MPO-ANCA” (The University of North Carolina at Chapel Hill, priority 2012, published 2015).
# Tests used:
# [1] = test system: anti-MPO antibodies of immunized DR2 Tg mice; test: Epitope excision MS of IgG from immunized DR2 Tg mice with recombinant mouse MPO; assay type: binding; conditions: DR2 Tg mice immunized with MPO aa442-460
# Procedure: (§1) Mass spectrometry analysis of ANCA-negative IgG and mouse IgG samples were conducted as above. With the exception of protein substrate, immobilized ANCA-negative IgG were exposed to whole leukocyte lysate preparation from a healthy donor and mouse IgG to recombinant mouse MPO (R&D Systems).
# As HLA-MHC II help shape the B and T cell repertoires, and consequently the response to foreign and self-antigens, we wanted to define the epitope specificity of the anti-MPO autoantibodies that could be induced experimentally using DR2 Tg mice. In this way, we could assess development of the anti-MPO antibody response after immunization of a single epitope in the context of a human MHC II. IgG from sera of immunized mice was profiled for anti-MPO epitope specificity using epitope excision MS. DR2 Tg mice developed antibodies targeting the human B cell epitope aa447-459 which is within a conserved region of both murine and human MPO. Unpredictably, immunized DR2 Tg mice initiated a polyclonal response producing autoantibodies against the entire MPO molecule. The epitope profile was astonishingly similar to that of the MPO-ANCA human profile (Table 6), indicative of the critical nature of this epitope.
# MPO-ANCA [2] = test: Epitope excision MALDI-TOF/TOF MS of patient and healthy Ig with native MPO; assay type: binding; design: key: HC: Healthy control; Active disease; Remission; conditions: human Ig
# Description: Total immunoglobulin (IgG) was purified from sera using protein A/G PLUS-Agarose Reagent according to commercial protocol (Santa Cruz Biotechnology). Purified IgG was immobilized on CNBr-activated Sepharose 4B (GE Healthcare) in compact reaction columns (CRC, USB Corporation) and exposed to native MPO protein (MPO, Elastin Products Co, Inc) followed by digestion with sequencing grade TPCK-treated trypsin (Worthington). MPO-peptides remaining bound to IgG after digestion were eluted with 0.1% trifluoro acetic acid and analyzed on a 4800 Plus Matrix-Assisted Laser Desorption Ionization Time of Flight Mass Spectrometry (MALDI TOF/TOF MS/MS) in conjunction with ProteinPilot software (AB SCIEX).
# To identify epitopes of low titer autoantibodies, ^18O labeling (Mirza et al., J. Proteome Res. 7:3042 (2008)) was used to differentiate between the signal and the noise in the MS and MSMS spectra using the 4 Da shifts between the corresponding spectra of labeled and non-labeled peptides. Mass spectrometry analysis for epitopes recognized by MPO autoantibodies from healthy individuals, and for detection of low ANCA titers in remission samples required the use of isotope H2^18O to increase sensitivity (Cambridge Isotope Laboratories). Samples from healthy individuals (n=10) and MPO-ANCA patients in clinical remission (n=35) were processed in the presence of H2^18O. Incorporation of H2^18O on the carboxyl terminus of each proteolytic fragment of MPO during tryptic digestion, trypsin buffer was made with the isotope H2^18O as a diluent.
# MPO-ANCA positive patients (n=45) from the University of North Carolina cohort (UNC) were analyzed in the initial studies. Demographics of the cohort (Table 2) indicate a predominantly Caucasian group. Approximately 40% are diagnosed with microscopic polyangiitis (MPA), 40% with renal-limited disease and 20% are diagnosed with granulomatosis with polyangiitis (GPA). To compare epitope specificities related to disease activity, longitudinal samples were analyzed to include active disease (n=52) and remission (n=35) from the UNC cohort (Tables 3 and 4). Ten healthy subjects were included in the analyses. Purified immunoglobulin (Ig) from sera samples was subjected to analysis by epitope excision MALDI-TOF/TOF mass spectrometry (depicted in FIG. 3A) to identify epitope profiles of autoantibodies reactive with MPO. In order to epitope map low titer anti-MPO antibodies from healthy subjects and from patients in disease remission, an approach was designed using the ^16O-to-^18O exchange technique, an adaptation of a proteomics-based quantification method (Mirza et al., J. Proteome Res. 7:3042 (2008)). Incorporation of H2^18O on the carboxyl termini of proteolytic fragments produces a 4 Da mass shift in the MS spectra, decipherable from background noise. MPO epitopes unique to Ig from patients with active disease were designated ‘exclusive to active disease’; epitopes identified in remission samples were designated ‘persistent during remission’; and those present in samples from healthy subjects were designated asymptomatic or ‘natural’.
# DR2 Tg mice = test: Actively induced anti-MPO associated glomerulonephritis (peptide immunization); assay type: in vivo, mouse; conditions: day 28
# Procedure: DR2 Tg mice (Ooi et al., Proc. Natl. Acad. Sci. USA 109:E2615 (2012); Rich et al., Eur. J. Immunol. 34:1251 (2004)) were immunized s.c. with 3×100 μg of peptide antigen (OVA323-339, n=4 or MPO442-460, n=10) first in FCA then FIA on days 0, 7 and 14. Mice were culled on day 28.
# For indirect immunofluorescence, ethanol fixed thioglycolate induced peritoneal neutrophils were cytospun onto slides, purified serum IgG (1 mg/ml) was applied for 20 minutes then anti-mouse IgG Ab was detected using FITC conjugated anti-mouse IgG Ab (Silenus) (Ooi et al., Proc. Natl. Acad. Sci. USA 109:E2615 (2012); Lock, J. Clin. Pathol. 47:4 (1994)). Albuminuria was assessed by ELISA (Bethyl Laboratories) and haematuria assessed by urine test strips (Combur) from a 24 hour urine sample. Blood urea nitrogen (BUN) was measured using standard laboratory methods on serum collected at the end of experiment. Glomerular abnormalities assessed, on […], PAS stained, formalin fixed, paraffin embedded sections (≧50 glomeruli/mouse), were thickening of the capillary walls and mesangial hypercellularity (Ooi et al., J. Am. Soc. Nephrol. 20:980 (2009)). Total glomerular cell nuclei were enumerated (≧20 glomeruli/mouse). Glomerular neutrophils were detected by immunoperoxidase staining of 6 μm thick, periodate lysine paraformaldehyde fixed, frozen kidney sections using anti-Gr-1 antibodies (RB6-8C5).
# [3] = test system: IgG from ANCA-negative AAV patients; test: Epitope excision MS of ANCA-negative IgG with whole leukocyte lysate; assay type: binding, human; conditions: total Ig from ANCA-negative AAV patients
# Procedure: as §1
# A variation of epitope excision MS for MPO-ANCA was adapted into a ‘discovery’ tool for identifying unknown autoantigens in ANCA-negative AAV, which presents clinically as vasculitis although with a negative serology for MPO-ANCA and PR3-ANCA. ANCA-negative AAV patients were identified by retrospective review of the medical records, with criteria of histological evidence of vasculitis and negative serological test results from the UNC Hospital clinical laboratory. As an additional measure, sera samples selected for analysis were retested for ANCA reactivity by the laboratory of Dr. John Niles, Massachusetts General Hospital, Boston, USA and were confirmed to be ANCA-negative. Protein lysate of total peripheral blood leukocytes were probed for antigen/s that were reactive with purified total Ig from ANCA-negative AAV patients' sera (FIG. 5A). […] MPO-ANCA specific for this epitope were detected by ELISA using isolated Ig from 8/10 UNC AAV patients and from 6/11 NL AAV patients (Table 2).
# MPO-ANCA [4] = test: Peptide ELISA with total IgG (Chapel Hill and Groningen); assay type: binding, human; conditions: for MPO-ANCA specific for the epitope detected by ELISA, patients positive/tested: isolated Ig
# Procedure: A total of 195 IgG samples were tested by native MPO or peptide ELISA. Samples included those from healthy controls (n=59), active disease (n=80) and remission patients (n=56). Total IgG was added to wells (2 μg/well) precoated with 1-2 μg peptide (UNC-CH peptide synthesis core). Goat anti-human with alkaline phosphatase conjugate secondary antibody specific to IgG (H+L) (Millipore, Billerica, Mass.) (1:10,000) was added and detected using 1-Step PNPP substrate (Thermo Scientific) and read at λ=405 nm after 30 min. Identical peptides were used in ELISAs at both locations; all other substrates used to test NL cohort samples by ELISAs were prepared in Groningen. Total IgG (1:500˜2 mg/well) was added to precoated wells blocked with 1% BSA. Secondary antibody, goat anti-human conjugated with alkaline phosphatase (A5403; Sigma-Aldrich) (1:5000), was added and detected using p-nitrophenyl-phosphate disodium substrate.
# [5] = test system: anti-MPO^447-459 autoantibody; test: Epitope masking ELISA with ceruloplasmin and its fragments; assay type: binding, human
# Description: Serum proteins that bound immobilized MPO peptide aa447-459 were eluted and sequenced for identification. […] Sequenced on a 4800 MALDI TOF-TOF, the protein was identified as ceruloplasmin (CP), and confirmed by western blot analysis probed with a rabbit anti-human anti-CP polyclonal antibody (Abeam). Native CP was purchased (Enzo Life Science) and proteolytically digested in vitro by plasmin (Haemtech).
# (§2) To isolate the putative serum factor, immobilized MPO aa447-459 peptide was used as bait to fish-out host proteins with binding capacity. […] However, the CP bound to aa447-459 was primarily a 50 kD protein on sodium dodecyl sulfate polyacrylamide gel electrophoresis (SDS-PAGE), while full length CP is 151 kD (FIG. 6D). An anti-ceruloplasmin western blot confirmed the fragment to be a portion of CP (FIG. 6E). To test the role of proteolytic cleavage in generating the blocking factor, a plasmin-generated fragment of CP (Kingston et al., Proc. Natl. Acad. Sci. USA 74:5377 (1977)) was tested for epitope masking capability (FIG. 6F).
# [6] = test system: MPO-ANCA IgG (polyclonal); test: Effect of CP on binding of polyclonal MPO-ANCA Ig to native MPO (ELISA); design: species or system human; conditions: MPO-ANCA IgG from four patients
# Description: as §2
molecule,measurement,setting,value
RKIVGAMVQIITY (listed as Homo sapiens) [aa447-459],Epitopes found in immunized mice,[1],RKIVGAMVQIITY
same,"Found in samples: Healthy control, Active disease, or Remission, (HC, A, R)",MPO-ANCA [2]; Table 1,A
same,"Found in samples: Healthy control, Active disease, or Remission, (HC, A, R)",MPO-ANCA [2]; Table 6,A
same,glomerular disease,DR2 Tg mice,develop glomerulonephritis
same,peptide eluted from ANCA-negative Ig (MS),[3],A sole peptide was eluted and identified
same,level of ELISA reactivity versus disease activity,"MPO-ANCA [4]; ANCA-negative patients, UNC (n=4) and NL (n=5), longitudinal","corresponded well with disease activity, declining to low levels as patients entered disease remission"
same,share of MPO-ANCA positive AAV patients with active disease in whom the epitope was identified,"MPO-ANCA [4]; MPO-ANCA positive AAV, active disease",~50%
same,"reactivity by ELISA, share of patient samples","MPO-ANCA [4]; NL population, active disease",52.2%
same,"reactivity by ELISA, share of patient samples","MPO-ANCA [4]; UNC MPO-ANCA patient samples, active disease",42.9%
same,ELISA reactivity in clinical remission,"MPO-ANCA [4]; UNC and NL cohorts, remission samples",Reactivity declined in clinical remission
same,"MPO-ANCA specific for the epitope detected by ELISA, patients positive/tested",MPO-ANCA [4]; ANCA-negative NL AAV patients,6/11
same,"MPO-ANCA specific for the epitope detected by ELISA, patients positive/tested",MPO-ANCA [4]; ANCA-negative UNC AAV patients,8/10
thrombin [reference compound],generation of a functional (blocking) ceruloplasmin fragment by serum proteases,[5],did not
urokinase [reference compound],generation of a functional (blocking) ceruloplasmin fragment by serum proteases,[5],produced a functional fragment
digested CP: ceruloplasmin digested with plasmin in vitro to produce a 50 kD fragment (protein) SVPPSASHVAPTETFTYEWTVPKEVGPTNADPVCLAKMYYSAVEPTKDIFTGLIGPMKICKKGSLHANGRQKDVDKEFYLFPTVFDENESLLLEDNIRMFTTAPDQVDKEDEDFQESNKMHSMNGFMYGNQPGLTMCKGDSVVWYLFSAGNEADVHGIYFSGNTYLWRGERRDTANLFPQTSLTLHMWPDTEGTFNVECLTTDHYTGGMKQKYTVNQCRRQSEDSTFYLGERTYYIAAVEVEWDYSPQREWEKELHHLQEQNVSNAFLDKGEFYIGSKYKKVVYRQYTDSTFRVPVERKAEEEHLGILGPQLHADVGDKVKIIFKNMATRPYSIHAHGVQTESSTVTPTLPGETLTYVWKIPERSGAGTEDSACIPWAYYSTVDQVKDLYSGLIGPLIVCRRPYL,decrease of anti-MPO^447-459 autoantibody reactivity,"[5]; ELISA, n=8",30-50%
same,effect on binding of polyclonal MPO-ANCA Ig to native MPO,[6],did not affect the overall binding
